Measured values reported in PMC10064984, “Anti-cyclooxygenase, anti-glycation, and anti-skin aging effect of Dendrobium officinale flowers’ aqueous extract and its phytochemical validation in aging” (Frontiers in Immunology, 2023).
“And” between values parts separate entries of the source, which are not always exact repeats. Equal entries are not always repeated.

Tests used:
Format in all cases: biochemical
DPPH· scavenging = conditions: mean ± SD, n = 3
[1] = ABTS·+ decolourisation capacity; conditions: for IC50: mean ± SD, n = 3; for ABTS scavenging rate: 0.5mM series, replicate wells, listed as T21
Outline: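 ABTS·+ working solution in 0.2 M phosphate buffer, pH 7.4, was adjusted to A729 0.8 ± 0.05, and 100 μl was mixed with 200 μl sample; absorbance was read at 729 nm after 10 min, in triplicate. Inhibition was taken relative to a phosphate-buffer control, and IC50 was obtained graphically from dose-inhibition curves.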

[2] = FRAP total antioxidant capacity; conditions: lower part of sheet (compound series);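 also: colourimetric FRAP kit assay read as absorbance in 96-well plates, values as mM FeSO4 via standard curve, EC1 being sample concentration matching 1.0 mmol/L FeSO4, Trolox positive control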
COX-2 = biological target: T1, COX-2 (Homo sapiens, UniProt P35354); assay: Anti-COX-2 assay (COX-2 Inhibitor Screening Kit); conditions: for COX-2 inhibition: single replicates
T1 construct: purchased Beyotime S0168
T1 sequence (P35354 18-604): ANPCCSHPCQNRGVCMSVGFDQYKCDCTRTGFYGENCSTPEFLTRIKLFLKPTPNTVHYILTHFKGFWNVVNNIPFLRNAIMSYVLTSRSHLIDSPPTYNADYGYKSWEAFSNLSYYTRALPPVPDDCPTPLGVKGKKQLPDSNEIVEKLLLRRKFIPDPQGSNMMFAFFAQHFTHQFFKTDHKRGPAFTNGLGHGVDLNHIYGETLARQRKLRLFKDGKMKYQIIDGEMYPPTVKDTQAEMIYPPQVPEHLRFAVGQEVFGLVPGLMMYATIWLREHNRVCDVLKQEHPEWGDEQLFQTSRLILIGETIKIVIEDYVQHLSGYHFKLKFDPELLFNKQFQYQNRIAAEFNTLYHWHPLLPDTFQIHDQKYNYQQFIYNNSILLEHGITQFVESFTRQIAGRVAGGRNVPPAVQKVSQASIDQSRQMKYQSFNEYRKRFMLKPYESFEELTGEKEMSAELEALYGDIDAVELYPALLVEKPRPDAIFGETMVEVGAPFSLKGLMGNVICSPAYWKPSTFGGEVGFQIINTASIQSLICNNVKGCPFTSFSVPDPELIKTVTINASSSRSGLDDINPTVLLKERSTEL

[3] = Fluorescent AGEs formation in a BSA-fructose/glucose system; conditions: for inhibition of fluorescent AGEs formation (BSA-抗糖化), single replicate: individual replicate; for inhibition of fluorescent AGEs formation (BSA-抗糖化), 平均 (mean): mean of 3 replicates
Outline: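 BSA glycated in vitro with D-glucose and D-fructose while test samples, dissolved in DMSO:water (1:4), were present. Percent inhibition of fluorescent AGE formation calculated from fluorescence corrected for sample-only and BSA-free blanks; triplicate.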

[4] = mean ± SD, n = 3, read-out: BSA-glycation IC50

Kaempferol-3-O-rutinoside [compound 28]
IC50 (DPPH· scavenging): > 5000 µM
IC50 [1]: 35.01 ± 0.22 µM
FRAP EC1 [2]: >5000 µM
COX-2 inhibition (in words) (COX-2): no inhibitory effects
COX-2 inhibition (COX-2; 3.125 μM, listed as T12, 3.125 µM): 24.76% and 3.80%
COX-2 inhibition (COX-2; 6.25 μM, listed as T12, 6.25 µM): 9.88% and 6.40% and 22.14%
COX-2 inhibition (COX-2; 12.5 μM, listed as T12, 12.5 µM): -1.05% and 3.59% and 13.88%
COX-2 inhibition (COX-2; 25 μM, listed as T12, 25 µM): -5.04% and -8.91% and 26.95%
COX-2 inhibition (COX-2; 50 μM, listed as T12, 50 µM): -2.18% and -5.56% and 1.52%
COX-2 inhibition (COX-2; 100 μM, listed as T12, 100 µM): 7.51% and -46.40% and 2.25%
COX-2 inhibition (COX-2; 200 μM, listed as T12, 200 µM): -9.13% and -25.75% and 1.42%
inhibition of fluorescent AGEs formation (BSA-抗糖化), single replicate ([3]; 15.625 µM, listed as T12, 15.625 µM): -0.31% and 7.28% and -2.72%
inhibition of fluorescent AGEs formation (BSA-抗糖化), 平均 (mean) ([3]; 15.625 µM): 1.41%
inhibition of fluorescent AGEs formation (BSA-抗糖化), single replicate ([3]; 31.25 µM, listed as T12, 31.25 µM): 6.95% and 5.50% and 2.44%
inhibition of fluorescent AGEs formation (BSA-抗糖化), 平均 (mean) ([3]; 31.25 µM): 4.96%
inhibition of fluorescent AGEs formation (BSA-抗糖化), single replicate ([3]; 62.5 µM, listed as T12, 62.5 µM): 13.47% and 13.89% and 14.50%
inhibition of fluorescent AGEs formation (BSA-抗糖化), 平均 (mean) ([3]; 62.5 µM): 13.95%
inhibition of fluorescent AGEs formation (BSA-抗糖化), single replicate ([3]; 125 µM, listed as T12, 125 µM): 22.45% and 28.29% and 22.60%
inhibition of fluorescent AGEs formation (BSA-抗糖化), 平均 (mean) ([3]; 125 µM): 24.45%
inhibition of fluorescent AGEs formation (BSA-抗糖化), single replicate ([3]; 250 µM, listed as T12, 250 µM): 38.13% and 38.77% and 37.66%
inhibition of fluorescent AGEs formation (BSA-抗糖化), 平均 (mean) ([3]; 250 µM): 38.19%
inhibition of fluorescent AGEs formation (BSA-抗糖化), single replicate ([3]; 500 µM, listed as T12, 500 µM): 58.09% and 57.21% and 56.73%
inhibition of fluorescent AGEs formation (BSA-抗糖化), 平均 (mean) ([3]; 500 µM): 57.34%
inhibition of fluorescent AGEs formation (BSA-抗糖化), single replicate ([3]; 1000 µM, listed as T12, 1000 µM): 74.99% and 76.95% and 73.93%
inhibition of fluorescent AGEs formation (BSA-抗糖化), 平均 (mean) ([3]; 1000 µM): 75.29%
inhibition of fluorescent AGEs formation (BSA-抗糖化), single replicate ([3]; 2000 µM, listed as T12, 2000 µM): 85.90% and 86.14% and 85.80%
inhibition of fluorescent AGEs formation (BSA-抗糖化), 平均 (mean) ([3]; 2000 µM): 85.95%
inhibition of fluorescent AGEs formation (BSA-抗糖化), single replicate ([3]; 4000 µM (series head 'T9 4000µM', 2-fold dilutions), listed as T12): 92.80% and 92.79% and 92.84%
inhibition of fluorescent AGEs formation (BSA-抗糖化), 平均 (mean) ([3]; 4000 µM): 92.81%
IC50 [3, 4]: 374 ± 18.1 µM

Neoschaftoside [compound 21]
IC50 (DPPH· scavenging): > 5000 µM
ABTS scavenging rate ([1]; concentration 15.625 (unit not given)): 37.92% and 38.74% and 38.24%
ABTS scavenging rate ([1]; concentration 31.25 (unit not given)): 60.76% and 61.20% and 60.99%
ABTS scavenging rate ([1]; concentration 62.5 (unit not given)): 81.08% and 80.87% and 80.62%
ABTS scavenging rate ([1]; concentration 125 (unit not given)): 92.61% and 92.60% and 92.36%
ABTS scavenging rate ([1]; concentration 250 (unit not given)): 98.02% (2×) and 98.07%
ABTS scavenging rate ([1]; concentration 500 (unit not given)): 99.70% and 99.73% and 99.67%
IC50 [1]: 21.4 ± 0.24 µM
FRAP EC1 [2]: >5000 µM
COX-2 inhibition (in words) (COX-2): no inhibitory effects
COX-2 inhibition (COX-2; 31.25 μM, listed as T21, 31.25 µM): -6.16% and -4.80% and 6.61%
COX-2 inhibition (COX-2; 62.5 μM, listed as T21, 62.5 µM): 6.28% and 7.65% and 11.30%
COX-2 inhibition (COX-2; 125 μM, listed as T21, 125 µM): 1.19% and -2.74% and 1.96%
COX-2 inhibition (COX-2; 250 μM, listed as T21, 250 µM): 3.95% and 0.81% and 18.87%
COX-2 inhibition (COX-2; 500 μM, listed as T21, 500 µM): -4.13% and -1.62% and 4.93%
COX-2 inhibition (COX-2; 1000 μM, listed as T21, 1000 µM): -1.41% and 2.18% and 12.07%
COX-2 inhibition (COX-2; 2000 μM (2mM), listed as T21): 51.51% and 49.86% and 47.92%
inhibition of fluorescent AGEs formation (BSA-抗糖化), single replicate ([3]; 15.625 µM): 0.054% and 0.23% and 1.18%
inhibition of fluorescent AGEs formation (BSA-抗糖化), 平均 (mean) ([3]; 15.625 µM): 0.49%
inhibition of fluorescent AGEs formation (BSA-抗糖化), single replicate ([3]; 31.25 µM): 5.09% and 4.69% and 3.66%
inhibition of fluorescent AGEs formation (BSA-抗糖化), 平均 (mean) ([3]; 31.25 µM): 4.48%
inhibition of fluorescent AGEs formation (BSA-抗糖化), single replicate ([3]; 62.5 µM): 7.25% and 9.67% and 10.17%
inhibition of fluorescent AGEs formation (BSA-抗糖化), 平均 (mean) ([3]; 62.5 µM): 9.03%
inhibition of fluorescent AGEs formation (BSA-抗糖化), single replicate ([3]; 125 µM): 20.04% and 20.34% and 19.73%
inhibition of fluorescent AGEs formation (BSA-抗糖化), 平均 (mean) ([3]; 125 µM): 20.04%
inhibition of fluorescent AGEs formation (BSA-抗糖化), single replicate ([3]; 250 µM): 36.81% and 35.45% and 36.08%
inhibition of fluorescent AGEs formation (BSA-抗糖化), 平均 (mean) ([3]; 250 µM): 36.11%
inhibition of fluorescent AGEs formation (BSA-抗糖化), single replicate ([3]; 500 µM): 54.95% and 55.05% and 56.69%
inhibition of fluorescent AGEs formation (BSA-抗糖化), 平均 (mean) ([3]; 500 µM): 55.56%
inhibition of fluorescent AGEs formation (BSA-抗糖化), single replicate ([3]; 1000 µM): 71.70% (2×) and 72.55%
inhibition of fluorescent AGEs formation (BSA-抗糖化), 平均 (mean) ([3]; 1000 µM): 71.98%
inhibition of fluorescent AGEs formation (BSA-抗糖化), single replicate ([3]; 2000 µM): 83.42% and 82.90% and 83.96%
inhibition of fluorescent AGEs formation (BSA-抗糖化), 平均 (mean) ([3]; 2000 µM): 83.43%
inhibition of fluorescent AGEs formation (BSA-抗糖化), single replicate ([3]; 4000 µM (series head 'T9 4000µM', 2-fold dilutions)): 91.13% and 89.60% and 90.19%
inhibition of fluorescent AGEs formation (BSA-抗糖化), 平均 (mean) ([3]; 4000 µM): 90.31%
IC50 ([3]; BSA anti-glycation, IC50 of each of 3 replicates, read-out: IC50, single replicate curve): 432 µM and 437 µM and 421 µM
IC50 [3, 4]: 430 ± 8 µM

Vicenin-3 [compound 19]
IC50 (DPPH· scavenging): > 5000 µM
IC50 [1]: 74.8 ± 0.92 µM
FRAP EC1 [2]: >5000 µM
COX-2 inhibition (in words) (COX-2): no inhibitory effects
COX-2 inhibition (COX-2; 31.25 μM, listed as T8, 31.25 µM): -27.09% and -25.76% and -19.42%
COX-2 inhibition (COX-2; 62.5 μM, listed as T8, 62.5 µM): -19.03% and -34.16% and -24.78%
COX-2 inhibition (COX-2; 125 μM, listed as T8, 125 µM): -26.82% and -40.95% and -33.02%
COX-2 inhibition (COX-2; 250 μM, listed as T8, 250 µM): -32.94% and -46.72% and -42.57%
COX-2 inhibition (COX-2; 500 μM, listed as T8, 500 µM): -35.30% and -54.98% and -48.28%
COX-2 inhibition (COX-2; 1000 μM, listed as T8, 1000 µM): -23.28% and -61.50% and -50.44%
COX-2 inhibition (COX-2; 2000 μM (2mM), listed as T8): -50.77% and -55.05% and -54.78%
IC50 [3, 4]: 243 ± 12 µM
